The target in test [1] is Glutamate-cysteine ligase gshA (Escherichia coli) (UniProt P0A6W9). The test can be described thus: Tested for inhibition of Escherichia coli gamma-glutamylcysteine synthetase at a concentration of 5.7 uM.
For test [2] the target is unchanged. The test can be described thus: Tested for inhibition of Escherichia coli gamma-glutamylcysteine synthetase at a concentration of 5.1 uM.

Chain of Glutamate-cysteine ligase gshA (Escherichia coli) (P0A6W9 whole entry, looked up): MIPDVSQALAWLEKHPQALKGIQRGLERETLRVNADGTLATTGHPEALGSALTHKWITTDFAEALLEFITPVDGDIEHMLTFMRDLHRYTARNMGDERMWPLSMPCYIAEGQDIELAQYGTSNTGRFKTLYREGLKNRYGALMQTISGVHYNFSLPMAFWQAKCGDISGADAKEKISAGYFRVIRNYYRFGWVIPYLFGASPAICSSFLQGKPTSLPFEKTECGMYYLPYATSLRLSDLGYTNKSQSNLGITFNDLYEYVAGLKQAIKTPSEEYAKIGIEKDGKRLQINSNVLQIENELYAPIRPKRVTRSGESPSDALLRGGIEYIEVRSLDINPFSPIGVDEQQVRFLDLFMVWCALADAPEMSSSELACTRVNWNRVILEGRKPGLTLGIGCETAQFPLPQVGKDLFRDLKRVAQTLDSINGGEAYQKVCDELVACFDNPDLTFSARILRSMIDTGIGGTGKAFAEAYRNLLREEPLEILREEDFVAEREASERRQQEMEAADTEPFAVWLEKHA

The Ki is a measure of affinity in units of concentration, obtained from inhibition or displacement. A lower Ki goes with higher affinity. In test [1], `CCC(CP(=O)(O)CC[C@H](N)C(=O)O)C(=O)O` (stereo partly drawn) [(2S)-2-ammonio-4-[(2-carboxylatobutyl)phosphinato]butanoate] came in with a Ki of 4.95 µM. This lies in the single-digit micromolar range. `CCCCS(=N)(=O)CCC(=N)C(=O)O` (configuration not stated) displayed a Ki in test [2] of 49.3 µM.
